Assay results: US20030157704A1, “Reagents and methods for identifying and modulating expression of genes regulated by CDK inhibitors” (priority 2001, published 2003)

How the values were obtained:
Format in all cases: cell-based, human
HT1080 p16-5 cells = test: Cell cycle distribution by FACS analysis of DNA content; settings: 50 μM IPTG, 24 hrs
Description: This cell population was subcloned, and 20 clonal cell lines were isolated and tested for IPTG-inducible growth inhibition. Cell line showing the strongest growth inhibition was designated HT1080 p16-5. This cell line has been deposited on Jan. 31, 2002 in the American Type Culture Collection (A.T.C.C.), Manassas, Va. and given Accession Number PTA-4020. […] Fractions of cells in different phases of the cell cycle were determined using FACS analysis of DNA content after staining with propidium iodide as described by Jordan et al. (1996, Cancer Res. 56:816-825) using Becton Dickinson FACSort. Cell cycle distribution stabilized after 24 hrs of IPTG treatment, by which time 93% of IPTG-treated cells were arrested in G1. Such G1 arrest is expected from the inhibition of CDK4/6 by p16.

NK4 promoter = test: Luciferase assay in LuNK4p21 cell line (NK4 promoter-luciferase, IPTG-inducible p21)
Description: This assay was performed as follows. Cells were plated at a density of 40,000 cells/well in 12 well plates in 1 mL of media containing penicillin/streptomycin, glutamine and 10% fetal calf serum (FCS). After attachment, cells were treated with 50 μM IPTG or left untreated for different periods of time. Luciferase activity was then measured as described in Example 8 above. An additional aliquot was removed from the cell lysate to measure protein concentration using the Bio-Rad protein assay kit (Bradford assay). Luciferase activity for each sample was normalized to protein content and expressed as luciferase activity/μg protein.
Luciferase assays were performed substantially as described in Example 9. Luciferase activity was measured after 16 hrs of incubation with or without 50 μM IPTG, followed by an additional 20 hr treatment in the presence or in the absence of 20 mM sodium salicylate, 1 mM sulindac, or 10 mM aspirin. […] NSAID concentrations were based on the pharmacologic concentrations of these agents in the serum of patients required for their anti-inflammatory properties (Yin et al., 1998, ibid.).

NFκB-dependent promoter = test: Transient transfection of pNFkB-Luc into HT1080 p21-9 cells, firefly luciferase; settings: different concentrations of IPTG
From the text: To determine if IPTG-inducible p21 expression in HT1080 p21-9 cells stimulates the transcriptional activity of NFκB, we have used transient transfection assays to investigate the effect of p21 induction on luciferase expression from the plasmid pNFkB-Luc, commercially available from Stratagene. This plasmid expresses firefly luciferase from an artificial promoter containing five tandemly repeated NFκB consensus sequences. We have also generated by PCR a version of the same promoter that contains only one NFκB consensus sequence using primers identified as SEQ ID Nos. 80 and 83. The sequences of these two promoters are identified as SEQ ID NOs. 78 and 79.
The ability of p21 to induce these promoters was tested by transient transfection assays, as described in Example 8, using different concentrations of IPTG that induce p21 to different levels.
This plasmid is referred to below as IKK. To determine the effect of p300/CBP inhibition on luciferase expression from pNFkB-Luc, the latter plasmid was similarly mixed in another assay with a vector expressing a truncated gene for adenoviral E1A protein with a C-terminal deletion {ΔCR2 (120-140)}. […] The E1AΔCR2 and E1AΔN/ΔCR2 constructs were provided by Dr. V. Ogryzko (NICHHD, NIH). […] The firefly luciferase activity was measured and normalized to Renilla luciferase activity measured (in the absence of IPTG) in each transfected sample.

What does the source list for `CC(C)S[C@@H]1O[C@H](CO)[C@H](O)[C@H](O)[C@H]1O` [IPTG, isopropyl-β-thiogalactoside]?
cells arrested in G1 (HT1080 p16-5 cells): 93%; treatment period at which most of the induction is achieved (NK4 promoter; 50 μM IPTG): 17 h; increase of luciferase expression (NK4 promoter; 50 μM IPTG, absence of NSAID): 3-4 fold; IPTG concentration at which most of the induction is achieved (NK4 promoter; 24 hrs of IPTG treatment): 5 µM; increase in luciferase levels in IPTG-treated cells (NK4 promoter; LuNK4p21 cell line): approximately 3 fold; induction of promoters containing five or one NFκB site (NFκB-dependent promoter): dose-dependent induction
